Test results taken from patent US10550102B2, “Indane and indoline derivatives and the use thereof as soluble guanylate cyclase activators” (NOVARTIS AG, priority 2014, dated 2020).
pEC50: −log10 of the molar value.

target: soluble guanylate cyclase (human GUCYA3 and GUCYB3) overexpressed in CHO cells (Homo sapiens (Human), UniProt Q02108+Q02153); assay: CHO cellular assay (cGMP production, Cisbio cGMP HTRF kit); assay type: cell-based; conditions: CHO GUCY clone 8E10, cGMP production, assay buffer with 1 mM IBMX and 20 uM ODQ, 1 h room temperature; minimum quantification limit 0.5 nM (listed 0.5 nM means ≤0.5 nM); read-out: EC50
Method in brief: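 EC50 was derived by 4-parameter sigmoidal fit of cGMP levels, read by HTRF against a standard curve. Compounds were applied for 1 h at room temperature, in buffer with 20 uM ODQ, 1 mM IBMX and 0.1% BSA (0.5% DMSO final). The cells were a stable CHO-K1 line (clone 8E10) overexpressing human GUCYA3 and GUCYB3, seeded at 3000/well.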

Sequence of soluble guanylate cyclase (human GUCYA3 and GUCYB3) overexpressed in CHO cells (Q02108 whole entry partner): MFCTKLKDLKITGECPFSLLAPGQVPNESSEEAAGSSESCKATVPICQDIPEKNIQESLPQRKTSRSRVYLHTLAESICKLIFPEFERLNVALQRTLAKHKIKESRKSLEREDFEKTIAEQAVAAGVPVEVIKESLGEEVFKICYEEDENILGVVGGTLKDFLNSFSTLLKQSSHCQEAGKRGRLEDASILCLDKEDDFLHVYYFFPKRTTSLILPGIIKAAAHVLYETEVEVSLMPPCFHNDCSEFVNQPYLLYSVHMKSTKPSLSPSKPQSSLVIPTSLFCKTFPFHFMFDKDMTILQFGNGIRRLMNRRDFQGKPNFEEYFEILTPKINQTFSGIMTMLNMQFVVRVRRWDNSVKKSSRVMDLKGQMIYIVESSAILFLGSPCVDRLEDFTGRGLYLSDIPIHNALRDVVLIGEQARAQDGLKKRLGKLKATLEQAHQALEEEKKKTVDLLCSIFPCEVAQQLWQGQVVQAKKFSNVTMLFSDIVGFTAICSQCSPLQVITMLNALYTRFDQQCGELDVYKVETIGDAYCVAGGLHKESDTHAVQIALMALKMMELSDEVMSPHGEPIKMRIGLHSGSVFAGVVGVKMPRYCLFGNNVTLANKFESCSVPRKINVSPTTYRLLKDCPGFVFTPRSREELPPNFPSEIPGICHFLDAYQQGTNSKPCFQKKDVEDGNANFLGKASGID
Sequence of soluble guanylate cyclase (human GUCYA3 and GUCYB3) overexpressed in CHO cells (Q02153 whole entry): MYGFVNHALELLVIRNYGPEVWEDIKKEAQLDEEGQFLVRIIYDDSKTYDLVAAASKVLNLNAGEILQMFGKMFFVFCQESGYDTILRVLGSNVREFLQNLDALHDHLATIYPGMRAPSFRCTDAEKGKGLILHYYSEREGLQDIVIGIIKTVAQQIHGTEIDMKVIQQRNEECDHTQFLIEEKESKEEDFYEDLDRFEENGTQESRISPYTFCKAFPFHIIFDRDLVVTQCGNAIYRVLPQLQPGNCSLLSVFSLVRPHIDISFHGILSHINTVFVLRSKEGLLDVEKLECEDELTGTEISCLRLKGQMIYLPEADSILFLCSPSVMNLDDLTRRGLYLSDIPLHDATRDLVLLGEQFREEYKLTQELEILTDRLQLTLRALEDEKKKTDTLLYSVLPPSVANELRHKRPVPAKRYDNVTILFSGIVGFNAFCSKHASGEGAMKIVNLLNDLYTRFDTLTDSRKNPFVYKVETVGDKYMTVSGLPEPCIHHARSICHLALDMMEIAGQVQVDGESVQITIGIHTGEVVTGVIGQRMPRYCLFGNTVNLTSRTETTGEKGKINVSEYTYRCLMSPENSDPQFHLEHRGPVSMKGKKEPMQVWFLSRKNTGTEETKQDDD

Structure (SMILES) | pEC50
Cc1cc(C2CCN(C(=O)C3CC3)CC2)ccc1OC1CCc2cccc(-c3cccc(-n4ncc(C(=O)O)c4C(F)(F)F)c3)c21 (single isomer, unassigned; (-)) [Example (−)-1. b), (−)-1-(3-(3-(4-(1-(cyclopropanecarbonyl)piperidin-4-yl)-2-methylphenoxy)-2,3-dihydro-1H-inden-4-yl)phenyl)-5-(trifluoromethyl)-1H-pyrazole-4-carboxylic acid] | 8.00
Cc1cc(C2CCN(C(=O)C3CC3)CC2)ccc1NC1CCc2cccc(-c3cccc(-n4ncc(C(=O)O)c4C(F)(F)F)n3)c21 (single isomer, unassigned; (-)) [Example (−)-8. b), (−)-1-(6-(3-((4-(1-(cyclopropanecarbonyl)piperidin-4-yl)-2-methylphenyl)amino)-2,3-dihydro-1H-inden-4-yl)pyridin-2-yl)-5-(trifluoromethyl)-1H-pyrazole-4-carboxylic Acid] | 7.28
Cc1cc(C2CCN(C(=O)C3CC3)CC2)ccc1O[C@H]1CCc2cccc(-c3cccc(-n4ncc(C(=O)O)c4C)c3)c21 [Example 2, (+)-(S)-1-(3-(3-(4-(1-(Cyclopropanecarbonyl)piperidin-4-yl)-2-methylphenoxy)-2,3-dihydro-1H-inden-4-yl)phenyl)-6-methyl-1H-pyrazole-4-carboxylic Acid] | 9.00
Cc1cc2c(c(-c3cccc(-n4ncc(C(=O)O)c4C(F)(F)F)n3)c1)C(Oc1ccc3c(c1)CCN(Cc1ccccn1)C3)CC2 (stereo not drawn) [Example 5-1] | 7.41
Cc1cc2c(c(-c3cccc(-n4ncc(C(=O)O)c4C(F)(F)F)n3)c1)C(Oc1ccc(C3CCN(C(=O)C4CC4)CC3)cc1C)CC2 (stereo not drawn) [Example 5-2] | 9.00
CCc1cc(O[C@H]2CCc3cccc(-c4cccc(-n5ncc(C(=O)O)c5C(F)(F)F)n4)c32)ccc1C1CCN(C(=O)C2CC2)CC1 [Example 5-3] | ≥ 9.30
Cc1cc(C2CCN(CC(F)(F)F)CC2)ccc1O[C@H]1CCc2cccc(-c3cccc(-n4ncc(C(=O)O)c4C(F)(F)F)n3)c21 [Example 5-4] | 8.70
Cc1cc(C2CCN(C(=O)C3CC3)CC2)ccc1O[C@H]1CCc2cccc(-c3cccc(-n4cc(C(=O)O)cn4)n3)c21 [Example 5-5] | 8.62
Cc1cc(C2CCN(C(=O)C3CC3)CC2)ccc1O[C@H]1CCc2cccc(-c3cccc(-n4ncc(C(=O)O)c4C)n3)c21 [Example 5-6] | ≥ 9.30
CCc1c(C(=O)O)cnn1-c1cccc(-c2cccc3c2[C@@H](Oc2ccc(C4CCN(C(=O)C5CC5)CC4)cc2C)CC3)n1 [Example 5-7] | ≥ 9.30
CCc1c(C(=O)O)cnn1-c1cccc(-c2cccc3c2[C@@H](Oc2ccc(C4CCN(CC(F)(F)F)CC4)cc2C)CC3)n1 [Example 5-8] | 9.00
CCc1cc(O[C@H]2CCc3cccc(-c4cccc(-n5ncc(C(=O)O)c5CC)n4)c32)ccc1C1CCN(C(=O)C2CC2)CC1 [Example 5-9] | ≥ 9.30
O=C(O)c1cnn(-c2cccc(-c3cccc4c3N(Cc3ccc(C5CCN(C(=O)C6CC6)CC5)cc3)CC4)n2)c1C(F)(F)F [Example 12, 1-(6-(1-(4-(1-(Cyclopropanecarbonyl)piperidin-4-yl)benzyl)indolin-7-yl)pyridin-2-yl)-5-(trifluoromethyl)-1H-pyrazole-4-carboxylic Acid] | 9.00
CCc1cc(CN2CCc3cccc(-c4cccc(-n5ncc(C(=O)O)c5C(F)(F)F)n4)c32)ccc1C1CCN(C(=O)C2CC2)CC1 [Example 13] | ≥ 9.30
CCc1cc(CN2CCc3cccc(-c4cccc(-n5ncc(C(=O)O)c5CC)n4)c32)ccc1C1CCN(C(=O)C2CC2)CC1 [Example 14, 1-(6-(1-(4-(1-(Cyclopropanecarbonyl)piperidin-4-yl)-3-ethylbenzyl)indolin-7-yl)pyridin-2-yl)-5-ethyl-1H-pyrazole-4-carboxylic Acid] | ≥ 9.30
CCc1cc(CN2CCc3cccc(-c4cccc(-n5ncc(C(=O)O)c5C(F)(F)F)n4)c32)ccc1C1CCN(CC(F)(F)F)CC1 [Example 15] | 8.82
CCc1cc(CN2CCc3cccc(-c4cccc(-n5ncc(C(=O)O)c5CC)n4)c32)ccc1C1CCN(CC(F)(F)F)CC1 [Example 16, 5-Ethyl-1-(6-(1-(3-ethyl-4-(1-(2,2,2-trifluoroethyl)piperidin-4-yl)benzyl)indolin-7-yl)pyridin-2-yl)-1H-pyrazole-4-carboxylic Acid] | 8.46
CCc1c(C(=O)O)cnn1-c1cccc(-c2cccc3c2N(Cc2ccc(C4CCN(C(=O)[C@H](C)O)CC4)cc2C)CC3)n1 [Example 18, (S)-5-Ethyl-1-(6-(1-(4-(1-(2-hydroxypropanoyl)piperidin-4-yl)-2-methylbenzyl)indolin-7-yl)pyridin-2-yl)-1H-pyrazole-4-carboxylic Acid] | 8.85
CCc1cc(CN2CC(C)(C)c3cccc(-c4cccc(-n5ncc(C(=O)O)c5CC)n4)c32)ccc1C1CCN(C(=O)C2CC2)CC1 [Example 23] | 8.70
Cc1cc(C2CCN(C3CC3)CC2)ccc1CN1CCc2cccc(-c3cccc(-n4ncc(C(=O)O)c4C)n3)c21 [Example 24, 1-(6-(1-(4-(1-Cyclopropylpiperidin-4-yl)-2-methylbenzyl)indolin-7-yl)pyridin-2-yl)-5-methyl-1H-pyrazole-4-carboxylic Acid] | 8.10
O=C(O)c1cnn(-c2cccc(-c3cccc4c3N(Cc3ccc5c(c3)CCN(Cc3ccccn3)C5)CC4)n2)c1C(F)(F)F [Example 25, 1-(6-(1-((2-(Pyridin-2-ylmethyl)-1,2,3,4-tetrahydroisoquinolin-6-yl)methyl)indolin-7-yl)pyridin-2-yl)-5-(trifluromethyl)-1H-pyrazole-4-carboxylic Acid] | 8.62
O=C(O)c1cnn(-c2cccc(-c3cccc4ccn(Cc5ccc(C6CCN(C(=O)C7CC7)CC6)cc5)c34)n2)c1C(F)(F)F [Example 26, 1-(6-(1-(4-(1-(Cyclopropanecarbonyl)piperidin-4-yl)benzyl)-1H-indol-7-yl)pyridin-2-yl)-5-(trifluoromethyl)-1H-pyrazole-4-carboxylic Acid] | 7.68
CCc1cc(Cn2ccc3cccc(-c4cccc(-n5ncc(C(=O)O)c5CC)n4)c32)ccc1C1CCN(C(=O)C2CC2)CC1 [Example 27] | ≥ 9.30
CCOC(=O)N1CCC(c2ccc(O[C@H]3CCc4cccc(-c5cccc(-n6ncc(C(=O)O)c6CC)n5)c43)cc2CC)CC1 [Example 29, (S)-1-(6-(3-(4-(1-(Ethoxycarbonyl)piperidin-4-yl)-3-ethylphenoxy)-2,3-dihydro-1H-inden-4-yl)pyridin-2-yl)-5-ethyl-1H-pyrazole-4-carboxylic Acid] | 9.00
CCc1cc(O[C@H]2CCc3cccc(-c4cccc(-n5ncc(C(=O)O)c5CC)n4)c32)ccc1C1CCN(C(=O)[C@H](C)O)CC1 [Example 30] | ≥ 9.30
CCc1cc(O[C@H]2CCc3cccc(-c4cccc(-n5ncc(C(=O)O)c5CC)n4)c32)ccc1C1CCN(C(=O)C2(O)CC2)CC1 [Example 33, (S)-5-ethyl-1-(6-(3-(3-ethyl-4-(1-(1-hydroxycyclopropanecarbonyl)piperidin-4-yl)phenoxy)-2,3-dihydro-1H-inden-4-yl)pyridin-2-yl)-1H-pyrazole-4-carboxylic Acid] | ≥ 9.30

More lines, now with the values ahead:

pEC50 | Structure (SMILES)
8.46 | Cc1cc(C2CCN(C(=O)C3CCC3)CC2)ccc1NC1CCc2cccc(-c3cccc(-n4ncc(C(=O)O)c4C)n3)c21 (single isomer, unassigned; (-)) [Example 45b]
7.57 | Cc1cc(C2CCN(C(=O)[C@H](C)O)CC2)ccc1NC1CCc2cccc(-c3cccc(-n4ncc(C(=O)O)c4C)n3)c21 (single isomer, unassigned; (-)) [Example 47b]
7.22 | CCc1nc(NC2CCc3cccc(-c4cccc(-n5ncc(C(=O)O)c5CC)n4)c32)ccc1C1CCN(C(=O)C2CC2)CC1 (single isomer, unassigned; (-)) [Example 63b, (−)-1-(6-(3-((5-(1-(Cyclopropanecarbonyl)piperidin-4-yl)-6-ethylpyridin-2-yl)amino)-2,3-dihydro-1H-inden-4-yl)pyridin-2-yl)-5-ethyl-1H-pyrazole-4-carboxylic Acid]
9.00 | O=C(O)c1cnn(-c2cccc(-c3cccc4c3C(Nc3ccc(C5CCN(C(=O)C6CC6)CC5)cc3)CC4)n2)c1C(F)(F)F (stereo not drawn) [Example 11-2]
8.85 | CCc1c(C(=O)O)cnn1-c1cccc(-c2cccc3c2C(Nc2ccc(C4CCN(CC(F)(F)F)CC4)cc2C)CC3)n1 (stereo not drawn) [Example 11-3]
≥ 9.30 | CCc1c(C(=O)O)cnn1-c1cccc(-c2cccc3c2N(Cc2ccc(C4CCN(C(=O)C5CC5)CC4)cc2C)CC3)n1 [Example 21-2, 1-(6-(1-(4-(1-(Cyclopropanecarbonyl)piperidin-4-yl)-2-methylbenzyl)indolin-7-yl)pyridin-2-yl)-5-ethyl-1H-pyrazole-4-carboxylic acid]
≥ 9.30 | CCC[C@H](O)C(=O)N1CCC(c2ccc(O[C@H]3CCc4cccc(-c5cccc(-n6ncc(C(=O)O)c6CC)n5)c43)cc2CC)CC1 [Example 31-1]
≥ 9.30 | CCc1cc(O[C@H]2CCc3cccc(-c4cccc(-n5ncc(C(=O)O)c5CC)n4)c32)ccc1C1CCN(C(=O)[C@@H](O)CC)CC1 [Example 31-2]
≥ 9.30 | CCc1cc(O[C@H]2CCc3cccc(-c4cccc(-n5ncc(C(=O)O)c5CC)n4)c32)ccc1C1CCN(C(=O)[C@@H](C)CO)CC1 [Example 31-3, 5-Ethyl-1-(6-((S)-3-(3-ethyl-4-(1-((S)-3-hydroxy-2-methylpropanoyl)piperidin-4-yl)phenoxy)-2-3-dihydro-1H-inden-4-yl)pyridin-2-yl)-1H-pyrazole-4-carboxylic acid]
≥ 9.30 | CCc1cc(O[C@H]2CCc3cccc(-c4cccc(-n5ncc(C(=O)O)c5CC)n4)c32)ccc1C1CCN(C(=O)C2(O)CCC2)CC1 [Example 31-4, (S)-5-Ethyl-1-(6-(3-(3-ethyl-4-(1-(1-hydroxycyclobutanecarbonyl)piperidin-4-yl)phenoxy)-2,3-dihydro-1H-inden-4-yl)pyridin-2-yl)-1H-pyrazole-4-carboxylic acid]
